Target: T1, μ-calpain (Homo sapiens, UniProt P07384)
T1 construct: purchased Calbiochem (San Diego, Calif.)
T1 sequence (P07384 1-714): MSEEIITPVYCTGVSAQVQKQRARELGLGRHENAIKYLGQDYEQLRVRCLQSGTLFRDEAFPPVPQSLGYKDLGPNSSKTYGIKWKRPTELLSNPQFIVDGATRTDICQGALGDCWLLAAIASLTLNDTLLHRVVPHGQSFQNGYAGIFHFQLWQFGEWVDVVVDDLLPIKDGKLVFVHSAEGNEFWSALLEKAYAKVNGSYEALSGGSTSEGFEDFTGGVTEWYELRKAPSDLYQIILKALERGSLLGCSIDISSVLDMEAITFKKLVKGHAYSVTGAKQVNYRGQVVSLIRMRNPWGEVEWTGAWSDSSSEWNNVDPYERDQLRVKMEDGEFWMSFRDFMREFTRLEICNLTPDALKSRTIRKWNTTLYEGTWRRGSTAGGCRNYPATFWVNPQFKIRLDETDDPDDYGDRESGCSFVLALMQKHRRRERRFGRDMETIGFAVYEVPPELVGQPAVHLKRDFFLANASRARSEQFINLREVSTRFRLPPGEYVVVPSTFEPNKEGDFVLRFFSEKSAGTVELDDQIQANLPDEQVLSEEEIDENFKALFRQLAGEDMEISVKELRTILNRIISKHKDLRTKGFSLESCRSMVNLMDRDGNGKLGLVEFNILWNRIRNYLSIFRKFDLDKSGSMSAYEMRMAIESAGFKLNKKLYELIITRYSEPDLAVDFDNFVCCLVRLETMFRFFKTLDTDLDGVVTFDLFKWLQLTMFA
T1 sequence (P04632 1-268 partner): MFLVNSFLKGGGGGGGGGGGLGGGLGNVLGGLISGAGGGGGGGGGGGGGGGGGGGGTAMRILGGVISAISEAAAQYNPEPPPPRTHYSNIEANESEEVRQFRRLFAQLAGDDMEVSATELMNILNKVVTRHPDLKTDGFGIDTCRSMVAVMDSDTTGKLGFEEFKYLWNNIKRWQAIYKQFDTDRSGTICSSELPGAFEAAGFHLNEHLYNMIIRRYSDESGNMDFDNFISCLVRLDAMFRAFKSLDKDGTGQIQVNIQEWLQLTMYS
Assay: Cleavage of purified recombinant p21cip1 by purified μ-calpain
Assay type: biochemical
Settings: E64d 100 μM; 0.4 μg p21^cip1, 0.004 units μ-calpain, 30 min at 30° C.; Western blot (FIG. 19)
Method: Cleavage of p21^cip1 by calpain. Recombinant p21^cip1 was provided by Harper (37) or Ke (47), and was also prepared using the expression plasmid pET-p21 (37) according to the published methods (30). To evaluate the effect of calpains on p21^cip1, 400 ng of purified recombinant p21^cip1 was incubated with 0.004 units of either pure μ-calpain or m-calpain at 30° C. for 30 minutes in 40 μl of cleavage buffer, containing 25 mM Tris-HCl (pH 7.5), 100 mM NaCl, 3 mM DTT and 5 mM CaCl2 (44). EDTA was added to 10 mM to stop the reaction. An equal volume of 2×SDS gel-loading buffer (18) was mixed with the digestion mixture and the mixture was immediately boiled for 5 min. The digestion products were evaluated by Western blot analysis or SDS-PAGE and coomassie brilliant blue staining.
FIGS. 19 and 20. Cleavage of purified recombinant p21^cip1 by purified ubiquitous calpains. 19. p21^cip1 (0.4 μg) was incubated with μ-calpain (0.004 units) for 30 min at 30° C. in the presence or absence of E64d (100 μM) and the resulting products were analyzed by Western blot analysis, as described in Materials and Methods 20. p21^cip1 (4 μg) or casein (3 μg) was incubated with 0.04 units of μ-calpain or m-calpain for 30 min at 30° C. and the products of the digestion were examined by SDS-PAGE and coomassie brilliant blue staining. […]

CC(C)C[C@H](NC(=O)[C@H]1O[C@@H]1C(=O)O)C(=O)NCCCCN=C(N)N (relative stereo) [E64d, trans-epoxysuccinyl-L-leucylamido (4-guanidino)-butane]
proteolysis of p21^cip1 by μ-calpain (in words): inhibited the proteolysis
